Source: PMC7395068, “The evolution of strategies to minimise the risk of human drug-induced liver injury (DILI) in drug discovery and development” (Archives of Toxicology, 2020)
Read-outs that look alike come from different tables or passages of the source.

Tests used:
hLiMTs = assay: Combined HCI (HCS) and cellular ATP 3D assay in hLiMTs; settings: for minimal effective concentration / AC50: Homo sapiens; for hLiMTs <25x Avg Cmax ATP / hLiMTs <100x Avg Cmaxu ATP: ATP endpoint; for hLiMTs <25x Avg Cmax ATP / hLiMTs <25x Avg Cmax HCS / hLiMTs <25x Avg Cmax All: cut-off <25x Avg Cmax; for hLiMTs <100x Avg Cmaxu ATP / hLiMTs <100x Avg Cmaxu HCS / hLiMTs <100x Avg Cmaxu All: cut-off <100x Avg Cmaxu; for hLiMTs <25x Avg Cmax HCS / hLiMTs <100x Avg Cmaxu HCS: HCS endpoints; for hLiMTs <25x Avg Cmax All: all endpoints (ATP and HCS); for hLiMTs Cmax max All / hLiMTs Cmax min All / hLiMTs <10 uM All / hLiMTs <100x Avg Cmaxu All: all endpoints; for hLiMTs Cmax max All: Cmax max used; for hLiMTs Cmax min All: Cmax min used; for hLiMTs <10 uM All: cut-off <10 uM
[1] = Plasma free fraction (fu) and unbound Cmax (Cmax,u); format: in vitro ADME, human; settings: unbound plasma Cmax
[2] = system: THLE or HepG2 cells, isolated mitochondria, BSEP; settings: cited from earlier work
human hepatocytes = settings: cited from earlier work; for Structural based (HCI): In vitro Assay, ref Xu 2008
[3] = system: HepG2 C3A spheroid, BSEP, Glu/Gal in HepG2 cells, bioactivation; settings: Bayesian modeling; ref Williams et al. 2019; cited from earlier work
[4] = plasma free fraction; cited from earlier work
HepaRG spheroids = assay: Combined HCI (HCS) and cellular ATP 3D assay in HepaRG spheroids; settings: for HepaRG <25x Avg Cmax ATP / HepaRG <100x Avg Cmaxu ATP: ATP endpoint; for HepaRG <25x Avg Cmax ATP / HepaRG <25x Avg Cmax HCS / HepaRG <25x Avg Cmax All: cut-off <25x Avg Cmax; for HepaRG <100x Avg Cmaxu ATP / HepaRG <100x Avg Cmaxu HCS / HepaRG <100x Avg Cmaxu All: cut-off <100x Avg Cmaxu; for HepaRG <25x Avg Cmax HCS / HepaRG <100x Avg Cmaxu HCS: HCS endpoints; for HepaRG <25x Avg Cmax All: all endpoints (ATP and HCS); for HepaRG Cmax max All / HepaRG Cmax min All / HepaRG <10 uM All / HepaRG <100x Avg Cmaxu All: all endpoints; for HepaRG Cmax max All: Cmax max used; for HepaRG Cmax min All: Cmax min used; for HepaRG <10 uM All: cut-off <10 uM; for AC50 / minimal effective concentration: Homo sapiens; for HepaRG <25x Avg Cmax ATP / HepaRG <100x Avg Cmaxu ATP / HepaRG <25x Avg Cmax HCS / HepaRG <100x Avg Cmaxu HCS / HepaRG <25x Avg Cmax All / HepaRG Cmax max All / HepaRG Cmax min All / HepaRG <10 uM All / HepaRG <100x Avg Cmaxu All / AC50 / minimal effective concentration: HepaRG
[5] = read-out: Human plasma Cmax; total plasma Cmax.tot, median of 9 literature references; cited from earlier work
[6] = system: isolated mouse liver mitochondria; settings: In vitro Assay; ref Porceddu 2012; cited from earlier work
[7] = system: HepG2 cells, primary human hepatocytes; settings: In vitro Assay; ref Garside 2014; cited from earlier work
PHH spheroids = settings: In vitro Assay; ref Vorrink 2018; cited from earlier work
[8] = Microtissue model structural based (HCI), combined HCS and ATP, MEC < 25 × Cmax.tot cut-off
[9] = Modeled in vitro assays (cytotoxicity, mitochondrial dysfunction, BSEP), ref Aleo et al. 2019

hLiMTs <25x Avg Cmax ATP (hLiMTs) | hLiMTs <100x Avg Cmaxu ATP (hLiMTs) | hLiMTs <25x Avg Cmax HCS (hLiMTs) | hLiMTs <100x Avg Cmaxu HCS (hLiMTs) | hLiMTs <25x Avg Cmax All (hLiMTs) | hLiMTs Cmax max All (hLiMTs) | hLiMTs Cmax min All (hLiMTs) | hLiMTs <10 uM All (hLiMTs) | hLiMTs <100x Avg Cmaxu All (hLiMTs) | Human plasma Cmax,u [1] [µM] | HepaRG <25x Avg Cmax ATP (HepaRG spheroids) | HepaRG <100x Avg Cmaxu ATP (HepaRG spheroids) | HepaRG <25x Avg Cmax HCS (HepaRG spheroids) | HepaRG <100x Avg Cmaxu HCS (HepaRG spheroids) | HepaRG <25x Avg Cmax All (HepaRG spheroids) | HepaRG Cmax max All (HepaRG spheroids) | HepaRG Cmax min All (HepaRG spheroids) | SMILES | minimal effective concentration (hLiMTs; read-out: HCS endpoint MEC) [µM] | Structural based (HCI) (human hepatocytes) | fu [4] | further results
-ve | -ve | -ve | -ve | -ve | -ve | -ve | -ve | -ve | 0.034 | -ve | -ve | -ve | -ve | -ve | -ve | -ve | Cc1ccc(N(CC2=NCCN2)c2cccc(O)c2)cc1 [phentolamine] | 87.4 | -VE | 0.460 | DILI prediction hLiMTs (HCS-MEC) (hLiMTs; [8]): -VE; Partition Hybrid HRM Score ([2]; In vitro Assay, ref Aleo 2019): -VE; Ro2 Hybrid HRM Score ([2]; In vitro Assay, ref Aleo 2019): -VE; Partition Hybrid HRM Score ≥4, Aleo (2019) [2, 9]: -VE; Partition Hybrid HRM Score ≥8, Aleo (2019) [2, 9]: -VE; Rule of Two hybrid HRM Score ≥3, Aleo (2019) [2, 9]: -VE; Rule of Two hybrid HRM Score ≥8, Aleo (2019) [2, 9]: -VE; DILI in vitro assay prediction, Xu (2008) (human hepatocytes; Structural based (HCI), human hepatocytes, ref Xu et al. 2008): -VE; Bayesian Machine Learning DILI prediction, Williams (2019) [3]: -VE; HepaRG <10 uM All (HepaRG spheroids): -ve; HepaRG <100x Avg Cmaxu All (HepaRG spheroids): -ve; AC50 (HepaRG spheroids; read-out: ATP endpoint AC50): 35.2 µM; minimal effective concentration (HepaRG spheroids; read-out: ATP endpoint MEC): 29.3 µM; AC50 (HepaRG spheroids; read-out: HCS endpoint AC50): 63 µM; minimal effective concentration (HepaRG spheroids; read-out: HCS endpoint MEC): 18.1 µM; DILI prediction HepaRG spheroids (HCS-MEC) (HepaRG spheroids; [8]): -VE; Cmax [5]: 75 nM
+ve | -ve | +ve | -ve | +ve | +ve | +ve | +ve (<10 uM) | -ve | 0.003 | -ve | -ve | +ve | -ve | +ve | +ve | +ve | CC/C(=C(\c1ccccc1)c1ccc(OCCN(C)C)cc1)c1ccccc1 [tamoxifen] | 1.97 | -VE | 0.010 | AC50 (hLiMTs; read-out: ATP endpoint AC50): 6.13 µM; minimal effective concentration (hLiMTs; read-out: ATP endpoint MEC): 3.93 µM; AC50 (hLiMTs; read-out: HCS endpoint AC50): 7.49 µM; in vitro data EC2<=1x Cmax [6]: +VE; in vitro data EC20<=2uM [6]: +VE; Cluster 1-6 +VE Assay [7]: +VE; hLiMTs ATP <20 x Cmax (PHH spheroids): +VE (IC20 < 20 × Cmax.tot cut-off); HepaRG <10 uM All (HepaRG spheroids): +ve (<10 uM); HepaRG <100x Avg Cmaxu All (HepaRG spheroids): -ve; AC50 (HepaRG spheroids; read-out: ATP endpoint AC50): 12.7 µM; minimal effective concentration (HepaRG spheroids; read-out: ATP endpoint MEC): 10.8 µM; AC50 (HepaRG spheroids; read-out: HCS endpoint AC50): 16.7 µM; minimal effective concentration (HepaRG spheroids; read-out: HCS endpoint MEC): 3.52 µM; Cmax [5]: 320 nM
